Assay results published in patent publication US8053417B2, “Hexosylceramides as adjuvants and their uses in pharmaceutical compositions” (Helmholtz-Zentrum fuer Infektionsforschung GmbH, priority 2005, dated 2011).

Legend:
[1] = tested on: C57BI6 mice; assay: VITAL assay (in vivo CTL), lysis of OVA peptide-pulsed target cells in immunized mice; details: 10 μg adjuvant with 50 μg Ovalbumin
Method: Experimental protocol: Six to eight weeks-old female C57BI6 mice were purchased from Harlan Winkelmann GmbH (Borchen, Germany) and treated in accordance with local and European Community guidelines. Groups of 5 mice each were immunized on day 1, 14 and 28 with 50 μg Ovalbumin (Sigma, Germany) alone or with 10 μg alphaGalCerMPEG or alphaGalCer. For intranasal immunization, 10 μl were applied to each naris, whereas for the s.c. injection Ovalbumin (ova) with or without alphaGalCerMPEG or alphaGalCer was resuspended in a volume of 50 μl PBS per animal. The determination of the in vivo lymphocyte-mediated cytotoxicity followed a protocol described by Hermans et. Al. (Herman, I. F., et. Al., 2004, The vital assay, J Immunol Methods, 285, 25-40). A suspension of splenocytes from naïve mice was depleted of red cells and split into two equal portions. The target cell preparation was labelled with a high concentration (1 μM) of CFSE (Molecular Probes) and pulsed for 1 h at 37° C. with the dominant OVA peptide (aa 257-264) at a concentration of 15 μg/ml. […] Cells from spleens were analyzed by flow cytometry after 16 h and 40 h, with the FACScalibur using the software BD cell Quest Pro. […] Cytotoxic activity was assessed with any variability in the proportion of cells in the different target populations assessed in a non-immunized control group for CTL assays.

[2] = tested on: Unstimulated spleen cells; assay: In vitro stimulation of unstimulated spleen cells ([3H]thymidine uptake); assay type: cell-based, mice; details: 4 days
Method: Experimental protocol: Spleens from female BALB/c (H-2d, Harlan Winkelmann) or CD1d−/− (Jackson Laboratories) mice of 6 weeks of age were removed and pooled for analysis of cellular immune responses. Cells were grown in RPMI 1640 supplemented with 10% fetal calf serum, 100 U/ml of penicillin, 50 μg/ml of streptomycin, 5×10^−5 M 2-mercaptoethanol and 1 mM L-glutamine (GIBCO BRL, Karlsruhe, Germany) and maintained at 37° C. in a humidified 5% CO2 atmosphere. Spleen cell suspensions were adjusted to 5×10^6 cells/ml in complete medium, cells were seeded with 100 μl per well in a flat-bottomed 96-well microtiter plate (Nunc) and plates were incubated for 4 days. Unstimulated spleen cells were incubated in the presence of different concentrations of the new adjuvants to analyze the in vitro stimulation capacity of alphaGalCerMPEG. T cell mediated immune responses were investigated at day 38 by measuring the proliferation of cells recovered from spleens after in vitro restimulation with β-Gal. […] Cells were then harvested on paper filters (Filtermat A; Wallac, Freiburg, Germany) by using a cell harvester (Inotech, Wohlen, Switzerland), and the amount of incorporated [3H]thymidine into the DNA of proliferating cells was determined by a β-scintillation counter (Wallac 1450, Micro-Trilux). The results are expressed as the arithmetic mean of [3H]thymidine uptake in cpm.

[3] = tested on: in vitro re-stimulated spleen cells; assay: Cytometric Bead Array of cytokines in supernatants of in vitro re-stimulated spleen cells from vaccinated mice; assay type: in vivo; details: parenteral administration (s.c.) with β-Gal
Method: To characterize the type of Th response stimulated following immunization, the content of IFN-γ, IL-2, IL-6, IL-10, MCP-1, and TNFα was measured in supernatants from in vitro re-stimulated spleen cells (FIGS. 8 and 9) by the Cytometric Bead Array. Culture supernatants from proliferating cells were collected on days 2 and 4, and stored at −70° C. Determinations of IFN-γ, TNFα, IL-2, IL-6, IL-10 and MCP-1 were performed by cytometric bead array analysis using the commercial kit from BectonDickinson, according to the manufacturer's instructions. A standard curve was generated for each cytokine by using the corresponding recombinant murine cytokines (Pharmingen). Probes were incubated at room temperature for additional 2 h. The probes were analyzed subsequently by flow cytometry as described in the protocol of BD.

[4] = tested on: YAC-1 cells; assay: 51Cr-release assay with splenocytes of injected mice as effectors and YAC-1 cells as targets for NK cells; assay type: in vivo
Method: Experimental protocol: Mice received 10 μg of alphaGalCer or alphaGalCerMPEG by s.c. route, whereas control animals were injected by intraperitoneal route with 100 μg of CpG. After 2 days, they were sacrified and their splenocytes were used as effector cells in a standard 51Cr-release assay using YAC-1 cells as targets for NK cells. Effector cells were washed and their concentration was adjusted to 1×10^6/ml. In parallel, target cells were incubated in RPMKI medium without FCS containing 100 μCi of 51Cr for 2 h. Then, target cells were extensively washed with RPMI medium containing FCS and co-incubated in triplicates with effector cells at different effector:target (E:T) ratios. After 4 h, cells were centrifuged and the radioactivity present in supernatants was measured by scintillation counting. Maximal lysis was determined after lysis with 5% […], whereas spontaneous lysis was measured in supernatants of untreated target cells. Results are expressed as percentage of lysed cells, accordingly to the formula: (sample−spontaneous lysis)/(maximal lysis−spontaneous lysis)×100.

[5] = tested on: spleens of vaccinated mice; assay: Elispot of beta-Gal specific cytokine secreting cells in spleens of vaccinated mice; assay type: in vivo
Method: Experimental protocol: Spleens from vaccinated mice were removed and pooled for analysis of cellular immune responses. The protocol for vaccination was identical to the protocol described in Example 3. Cells were grown in RPMI 1640 supplemented with 10% fetal calf serum, 100 U/ml of penicillin, 50 μg/ml of streptomycin, 5×10^−5 M 2-mercaptoethanol and 1 mM L-glutamine (GIBCO BRL, Karlsruhe, Germany) and maintained at 37° C. in a humidified 5% CO2 atmosphere. Lymph node and spleen cell suspensions were adjusted to 5×10^6 cells/ml in complete medium, cells were seeded with 100 μl per well in a flat-bottomed 96-well microtiter plate (Nunc) and plates were incubated 24 h (IFNgamma) or 48 h (IL-2 and IL-4) in the absence or presence of a beta-Gal peptide (TPHARIGL) encompassing a MHC class I-restricted epitope (for IFNgamma) or the beta-Gal protein (for IL-2 and IL-4), at a concentration of 10 μM. Then, cells were removed and the plates processed according to manufacture's instructions. Colored spots were counted with a C.T.L. Elispot reader and analysed using the ImmunoSpot image analyzer software v3.2.
Thus, to further characterize the T helper responses, the number of beta-Gal specific IFNgamma, IL-2 and IL-4 secreting cells present in spleens of vaccinated mice was determined. In agreement with the above results for IgG isotypes, high numbers of IL-4 secreting cells were detected in mice receiving alphaGalCerMPEG or alphaGalCer (FIG. 10).

[6] = background statement; cited from earlier work

CCCCCCCCCCCCCCCCCCCCCCCCCC(=O)N[C@@H](CO[C@H]1O[C@H](CO)[C@H](O)[C@H](O)[C@H]1O)[C@H](O)[C@H](O)CCCCCCCCCCCCCC [alphaGalCer, alpha-Galactosylceramide]
fold increase of the cytotoxic potential of splenocytes with respect to OVA antigen alone (5%) [1]: 6.4 fold
specific lysis of peptide-coated target cells ([1]; day 1, 14 and 28): 30%
stimulation of unstimulated spleen cells with different concentrations [2]: no dose dependent increase
secretion of IFNgamma [3]: significant enhanced secretion
secretion of IL-10 [3]: significant enhanced secretion
secretion of TNFalpha [3]: significant enhanced secretion
lysis of YAC-1 cells ([4]; effector:target ratio 50:1, splenocytes 2 days after injection): 34%
lysis of YAC-1 cells ([4]; effector:target ratio 100:1, splenocytes 2 days after injection): 37%
number of IL-4 secreting cells ([5]; spleens of vaccinated mice, beta-Gal protein 10 μM, 48 h): high numbers
number of IFNgamma secreting cells ([5]; stimulation with MHC class I restricted peptide, 24 h): increased to a significant minor extent
number of IL-2 secreting cells ([5]; stimulation with β-Gal protein, 48 h): increased to a significant minor extent
solubility in aqueous solvents [6]: poor
